Each structure is given as a SMILES string.

The subject of experiment [1] is BT-474 human mammary gland ductal carcinoma cells. Description: Inhibition of BT-474 cell growth (Cell Titer-Glo, 72 h). It is filed as cell-based. Particulars: BT-474 cells, 72 hours of culture, Cell Titer-Glo luminescence. On the procedure:
(§1) BT-474 human mammary gland ductal carcinoma cells were seeded in a clear polystyrene 96-well microculture plate (Corning® Costar® 96-well flat bottom plate, Cat. #3997) in a total volume of 90 μL/well. After 24 hours of incubation in a humidified incubator at 37° C. with 5% CO2 and 95% air, 10 μL of 10×, serially diluted test agents in growth medium were added to each well (10 pt dose response curve, highest concentration 10 μM of test agent). After 72 hours of culture in a humidified incubator at 37° C., in an atmosphere of 5% CO2 and 95% air, the plated cells and Cell Titer-Glo® (Protnega G7571) reagents were brought to room temperature to equilibrate for 30 minutes. 100 μL of Cell Titer-Glo® reagent was added to each well. The plate was shaken for two minutes and then left to equilibrate for ten minutes. The media/Cell Titer-Glo® reagent was transferred to a white polystyrene 96-well microculture plate (Corning® Costar® 96-well flat bottom plate, Cat. #3917) before reading luminescence on a Tecan GENios microplate reader.
(§2) Percent inhibition of cell growth was calculated relative to untreated control wells. The IC50 value for the test agents was determined using Prism 6.05 by curve-fitting of the data using the following four parameter-logistic equation:
[formula] where Top is the maximal % of control absorbance, Bottom is the minimal % of control absorbance at the highest agent concentration, Y is the % of control absorbance, X is the agent concentration, IC50 is the concentration of agent that inhibits cell growth by 50% compared to the control cells, and n is the slope of the curve. […]

A further experiment relates to HCC1954 cells. In words: Inhibition of HCC1954 cell growth (method analogous to BT-474). It is filed as cell-based. The note with it: Homo sapiens. On the procedure: as §1, §2
[formula] where Top is the maximal % of control absorbance, Bottom is the minimal % of control absorbance at the highest agent concentration, Y is the % of control absorbance, X is the agent concentration, IC50 is the concentration of agent that inhibits cell growth by 50% compared to the control cells, and n is the slope of the curve.
Inhibitory response of test compounds against HCC1954 cells was determined using a method analogous to that used for BT-474 cells.

As a reminder, the IC50 is the concentration needed to halve the response being measured. Low readings indicate higher potency, high ones lower potency. Regarding `C/C=C(\C)[C@H]1OC(=O)[C@@H](C)NC(=O)[C@H](C(C)CC)NC(=O)CN(C)C(=O)[C@@H](Cc2ccccc2)N(C)C(=O)[C@H](C)NC(=O)[C@@H](CC(C)C)OC(=O)/C(C)=C/C[C@H](OC(=O)NCCCCCCCO)[C@@H]1C` (stereo partly drawn) [Compound 5, (2R,5S,8R,14S,17R,20S,21S,22S,E)-8-benzyl-20-((E)-but-2-en-2-yl)-14-((R)-sec-butyl)-2-isobutyl-5,7,10,17,21,25-hexamethyl-3,6,9,12,15,18,26-heptaoxo-1,19-dioxa-4,7,10,13,16-pentaazacyclohexacos-24-en-22-yl(7-hydroxyheptyl)carbamate], the values for the IC50 (in experiment [1]; in the experiment with HCC1954 cells) were 0.329 nM and 1.11 nM, respectively.

Turning to `C/C=C(\C)[C@H]1OC(=O)[C@@H](C)NC(=O)[C@H]([C@H](C)CC)NC(=O)CN(C)C(=O)[C@@H](Cc2ccc(Cl)cc2)N(C)C(=O)[C@H](C)NC(=O)[C@@H](CC(C)C)OC(=O)/C(C)=C/C[C@H](O)[C@@H]1C` [Compound 15, (3R,6S,12R,15S,18R,24S,25S,26S,E)-26-((E)-but-2-en-2-yl)-6-((R)-sec-butyl)-12-(4-chlorobenzyl)-24-hydroxy-18-isobutyl-3,10,13,15,21,25-hexamethyl-1,19-dioxa-4,7,10,13,16-pentaazacyclohexacos-21-ene-2,5,8,11,14,17,20-heptaone], the IC50 amounted to 2.62 nM in experiment [1] and 4.37 nM in the experiment on HCC1954 cells. As for `C/C=C(\C)[C@H]1OC(=O)[C@@H](C)NC(=O)[C@H]([C@H](C)CC)NC(=O)CN(C)C(=O)[C@@H](Cc2ccccc2)N(C)C(=O)[C@H](C)NC(=O)[C@@H](CC(C)C)OC(=O)/C(C)=C/C[C@H](OC(=O)NCCCCCCCCO)[C@@H]1C` [Compound 6, (2R,5S,8R,14S,17R,20S,21S,22S,E)-8-benzyl-20-((E)-but-2-en-2-yl)-14-((R)-sec-butyl)-2-isobutyl-5,7,10,17,21,25-hexamethyl-3,6,9,12,15,18,26-heptaoxo-1,19-dioxa-4,7,10,13,16-pentaazacyclohexacos-24-en-22-yl (8-hydroxyoctyl)carbamate], the IC50 in experiment [1] is 0.93 nM; in the experiment on HCC1954 cells, 1.66 nM.

For the molecule `C/C=C(\C)[C@H]1OC(=O)[C@@H](C)NC(=O)[C@H]([C@H](C)CC)NC(=O)CN(C)C(=O)[C@@H](Cc2ccccc2)N(C)C(=O)[C@H](C)NC(=O)[C@@H](CC(C)C)OC(=O)/C(C)=C/C[C@H](OC(=O)NCCCO)[C@@H]1C` [Compound 1, (2R,5S,8R,14S,17R,20S,21S,22S,E)-8-benzyl-20-((E)-but-2-en-2-yl)-14-((R)-sec-butyl)-2-isobutyl-5,7,10,17,21,25-hexamethyl-3,6,9,12,15,18,26-heptaoxo-1,19-dioxa-4,7,10,13,16-pentaazacyclohexacos-24-en-22-yl (3-hydroxypropyl)carbamate], the IC50 stood at 0.0811 nM in experiment [1] and 0.457 nM in the experiment on HCC1954 cells. As to `C/C=C(\C)[C@H]1OC(=O)[C@@H](C)NC(=O)[C@H]([C@H](C)CC)NC(=O)CN(C)C(=O)[C@@H](Cc2ccccc2)N(C)C(=O)[C@H](C)NC(=O)[C@@H](CC(C)C)OC(=O)/C(C)=C/C[C@H](OC(=O)NCCCCO)[C@@H]1C` [Compound 2, (2R,5S,8R,14S,17R,20S,21S,22S,E)-8-benzyl-20-((E)-but-2-en-2-yl)-14-((R)-sec-butyl)-2-isobutyl-5,7,10,17,21,25-hexamethyl-3,6,9,12,15,18,26-heptaoxo-1,19-dioxa-4,7,10,13,16-pentaazacyclohexacos-24-en-22-yl (4-hydroxybutyl)carbamate], the values for the IC50 (in experiment [1]; in the experiment with HCC1954 cells) were 3.75 nM and 4.95 nM, respectively. For the molecule `C/C=C(\C)[C@H]1OC(=O)[C@@H](C)NC(=O)[C@H](C(C)CC)NC(=O)CN(C)C(=O)[C@@H](Cc2ccccc2)N(C)C(=O)[C@H](C)NC(=O)[C@@H](CC(C)C)OC(=O)/C(C)=C/C[C@H](OC(=O)NCCOCCO)[C@@H]1C` (stereo partly drawn) [Compound 11, (2R,5S,8R,14S,17R,20S,21S,22S,E)-8-benzyl-20-((E)-but-2-en-2-yl)-14-((R)-see-butyl)-2-isobutyl-5,7,10,17,21,25-hexamethyl-3,6,9,12,15,18,26-heptaoxo-1,19-dioxa-4,7,10,13,16-pentaazacyclohexacos-24-en-22-yl (2-(2-hydroxyethoxy)ethyl)carbamate], the IC50 came to 1 nM in experiment [1] and 1.64 nM in the experiment with HCC1954 cells. Turning to `C/C=C(\C)[C@H]1OC(=O)[C@@H](C)NC(=O)[C@H](C(C)CC)NC(=O)CN(C)C(=O)[C@@H](Cc2ccccc2)N(C)C(=O)[C@H](C)NC(=O)[C@@H](CC(C)C)OC(=O)/C(C)=C/C[C@H](OC(=O)NCCCCCCO)[C@@H]1C` (stereo partly drawn) [Compound 4, (2R,5S,8R,14S,17R,20S,21S,22S,E)-8-benzyl-20-((E)-but-2-en-2-yl)-14-((R)-sec-butyl)-2-isobutyl-5,7,10,17,21,25-hexamethyl-3,6,9,12,15,18,26-heptaoxo-1,19-dioxa-4,7,10,13,16-pentaazacyclohexacos-24-en-22-yl(6-hydroxyhexyl)carbamate], the IC50 stood at 0.523 nM in experiment [1] and 3.21 nM in the experiment on HCC1954 cells. In the case of `C/C=C(\C)[C@H]1OC(=O)[C@@H](C)NC(=O)[C@H]([C@H](C)CC)NC(=O)CN(C)C(=O)[C@@H](Cc2ccccc2)N(C)C(=O)[C@H](C)NC(=O)[C@@H](CC(C)C)OC(=O)/C(C)=C/C[C@H](OC(=O)N(C)CCCCCCNC)[C@@H]1C` [Compound 8, (2R,5S,8R,14S,17R,20S,21S,22S,E)-8-benzyl-20-((E)-but-2-en-2-yl)-14-((R)-sec-butyl)-2-isobutyl-5,7,10,17,21,25-hexamethyl-3,6,9,12,15,18,26-heptaoxo-1,19-dioxa-4,7,10,13,16-pentaazacyclohexacos-24-en-22-yl methyl(6-(methylamino)hexyl)carbamate], the IC50 in experiment [1] worked out at 8.66 nM; in the experiment on HCC1954 cells, 31.9 nM. In the same order, the values of `C/C=C(\C)[C@H]1OC(=O)[C@@H](C)NC(=O)[C@H]([C@H](C)CC)NC(=O)CN(C)C(=O)[C@@H](Cc2ccccc2)N(C)C(=O)[C@H](C)NC(=O)[C@@H](CC(C)C)OC(=O)/C(C)=C/C[C@H](OC(=O)NCCCCCO)[C@@H]1C` [Compound 3, (2R,5S,8R,14S,17R,20S,21S,22S,E)-8-benzyl-20-((E)-but-2-en-2-yl)-14-((R)-sec-butyl)-2-isobutyl-5,7,10,17,21,25-hexamethyl-3,6,9,12,15,18,26-heptaoxo-1,19-dioxa-4,7,10,13,16-pentaazacyclohexacos-24-en-22-yl (5-hydroxypentyl)carbamate] are 0.0843 nM and 1.41 nM.

For `C/C=C(\C)[C@H]1OC(=O)[C@@H](C)NC(=O)[C@H]([C@H](C)CC)NC(=O)CN(C)C(=O)[C@@H](Cc2ccccc2)N(C)C(=O)[C@H](C)NC(=O)[C@@H](CC(C)C)OC(=O)/C(C)=C/C[C@H](OC(=O)N2CCN(CCO)CC2)[C@@H]1C` [Compound 9, (2R,5S,8R,14S,17R,20S,21S,22S,E)-8-benzyl-20-((E)-but-2-en-2-yl)-14-((R)-sec-butyl)-2-isobutyl-5,7,10,17,21,25-hexamethyl-3,6,9,12,15,18,26-heptaoxo-1,19-dioxa-4,7,10,13,16-pentaazacyclohexacos-24-en-22-yl-4-(2-hydroxyethyl)piperazine-1-carboxylate], the IC50 in experiment [1] came to 0.15 nM; in the experiment with HCC1954 cells, 0.25 nM.

The molecule `C/C=C(\C)[C@H]1OC(=O)[C@@H](C)NC(=O)[C@H]([C@H](C)CC)NC(=O)CN(C)C(=O)[C@@H](Cc2ccccc2)N(C)C(=O)[C@H](C)NC(=O)[C@@H](CC(C)C)OC(=O)/C(C)=C/C[C@H](OC(=O)NCc2ccc(CO)cc2)[C@@H]1C` [Compound 12, (2R,5S,8R,14S,17R,20S,21S,22S,E)-8-benzyl-20-((E)-but-2-en-2-yl)-14-((R)-sec-butyl)-2-isobutyl-5,7,10,17,21,25-hexamethyl-3,6,9,12,15,18,26-heptaoxo-1,19-dioxa-4,7,10,13,16-pentaazacyclohexacos-24-en-22-yl (4-(hydroxymethyl)benzyl)carbamate] returned an IC50 with HCC1954 cells of 3.29 nM.

The record behind these values is US11254705B2, “Cyclic peptide analogs and conjugates thereof” (Sirenas LLC, priority 2016, dated 2022).
